Source: US8883415B2, “Aza-benzazolium containing cyanine dyes” (Life Technologies Corporation, priority 1999, dated 2014)

Tested on: double-stranded DNA
Test: Detecting double-stranded DNA in solution (fluorescence microplate reader)
Format: binding
Procedure: Samples containing 0.1 ng/mL to 1 microgram/mL double-stranded DNA are prepared in 10 mM Tris-HCl, 1 mM EDTA, pH 7.5. The selected dye of the invention is dissolved in DMSO at a concentration of 1-10 mM and then diluted into the same buffer at a concentration sufficient to achieve final optical densities of 0.1 and 0.01 at 500 nm, 530 nm, 540 nm or 560 nm. Equal volumes (100 microliters each) of DNA sample solution and dye solution at each concentration are combined and mixed gently at room temperature in a microplate well.
Samples are allowed to equilibrate for 5-60 minutes, protected from light, and the fluorescence of the sample is measured using a fluorescence microplate reader. DNA concentration is determined by comparison of the sample fluorescence with a standard curve obtained with that dye for each dye concentration. The sensitivity limit of several dyes in this assay is shown (Table 5).

[1] = Excitation 530 nm/Emission 560 nm
[2] = Excitation 540 nm/Emission 570 nm
[3] = Excitation 560 nm/Emission 585 nm
[4] = Excitation 500 nm/Emission 560 nm

C[n+]1cccc2oc(/C=C3\C=C(c4ccccc4)N(c4ccccc4)c4ccccc43)nc21.[I-] [Compound 17]
Sensitivity Limit, High dye concentration (0.1 OD) [1]: <10 ng/mL | Sensitivity Limit, Low dye concentration (0.01 OD) [1]: 2.0 ng/mL

C[n+]1cccc2oc(/C=C3\C=C(Cl)N(c4ccccc4)c4ccccc43)nc21 [Compound 29]
Sensitivity Limit, High dye concentration (0.1 OD) [2]: 100 ng/mL | Sensitivity Limit, Low dye concentration (0.01 OD) [2]: 2.0 ng/mL

CCN(CC)C1=C/C(=C\c2nc3c(ccc[n+]3C)o2)c2ccccc2N1c1ccccc1 [Compound 30]
Sensitivity Limit, High dye concentration (0.1 OD) [1]: 10 ng/mL | Sensitivity Limit, Low dye concentration (0.01 OD) [1]: 1.0 ng/mL

CN1C=C/C(=C\c2nc3cc[n+](C)cc3o2)c2ccccc21.[I-] [Compound 31]
Sensitivity Limit, High dye concentration (0.1 OD) [1]: 50 ng/mL | Sensitivity Limit, Low dye concentration (0.01 OD) [1]: 2.0 ng/mL

CN1C(Sc2ccccn2)=C/C(=C\c2nc3c(ccc[n+]3C)s2)c2ccccc21.[I-] [Compound 32]
Sensitivity Limit, High dye concentration (0.1 OD) [1]: 10 ng/mL | Sensitivity Limit, Low dye concentration (0.01 OD) [1]: 1.0 ng/mL

CN1C=C/C(=C\c2sc3ncccc3[n+]2C)c2ccccc21.[I-] [Compound 33]
Sensitivity Limit, High dye concentration (0.1 OD) [2]: 100 ng/mL | Sensitivity Limit, Low dye concentration (0.01 OD) [2]: >10 ng/mL

CN1C=C/C(=C\c2nc3c(cc(Cl)c[n+]3C)s2)c2ccccc21.[I-] [Compound 34]
Sensitivity Limit, High dye concentration (0.1 OD) [2]: <10 ng/mL | Sensitivity Limit, Low dye concentration (0.01 OD) [2]: 0.2 ng/mL

CN1C=C/C(=C\c2nc3c(cc(Cl)c[n+]3C)s2)c2ccccc21.[I-] [Compound 35]
Sensitivity Limit, High dye concentration (0.1 OD) [2]: 10 ng/mL | Sensitivity Limit, Low dye concentration (0.01 OD) [2]: 0.5 ng/mL

CN1C=C/C(=C\c2nc3c(cc(Cl)c[n+]3C)s2)c2ccccc21.[I-] [Compound 37]
Sensitivity Limit, High dye concentration (0.1 OD) [3]: 10 ng/mL | Sensitivity Limit, Low dye concentration (0.01 OD) [3]: 2.0 ng/mL

CN1C=C/C(=C\c2nc3c(cc(Cl)c[n+]3C)s2)c2ccccc21.[I-] [Compound 38]
Sensitivity Limit, High dye concentration (0.1 OD) [3]: 200 ng/mL | Sensitivity Limit, Low dye concentration (0.01 OD) [3]: 5.0 ng/mL

CN1C=C/C(=C\c2nc3c(cc(Cl)c[n+]3C)s2)c2ccccc21.[I-] [Compound 39]
Sensitivity Limit, High dye concentration (0.1 OD) [3]: 10 ng/mL | Sensitivity Limit, Low dye concentration (0.01 OD) [3]: 5.0 ng/mL

CN1C=C/C(=C\c2nc3c(cc(Cl)c[n+]3C)s2)c2ccccc21.[I-] [Compound 40]
Sensitivity Limit, High dye concentration (0.1 OD) [3]: 10 ng/mL | Sensitivity Limit, Low dye concentration (0.01 OD) [3]: 1.0 ng/mL

CN1C(Cl)=C/C(=C\c2nc3c(cc(Cl)c[n+]3C)s2)c2ccccc21.[Cl-] [Compound 41]
Sensitivity Limit, High dye concentration (0.1 OD) [3]: 10 ng/mL | Sensitivity Limit, Low dye concentration (0.01 OD) [3]: >10 ng/mL

CN1C=C/C(=C\c2nc3c(ccc[n+]3C)o2)c2ccccc21.Cc1ccc(S(=O)(=O)[O-])cc1 [Compound 48]
Sensitivity Limit, High dye concentration (0.1 OD) [4]: 10 ng/mL | Sensitivity Limit, Low dye concentration (0.01 OD) [4]: >10 ng/mL

CN1C=CC(Cc2sc3c(F)nc(F)c(F)c3[n+]2C)c2ccccc21.[I-] (stereo not shown) [Compound 49]
Sensitivity Limit, High dye concentration (0.1 OD) [4]: 20 ng/mL | Sensitivity Limit, Low dye concentration (0.01 OD) [4]: >10 ng/mL

CC1/C(=C/c2nc3c(ccc[n+]3C)o2)C=Cc2ccccc21.Cc1ccc(S(=O)(=O)[O-])cc1 (stereo not shown) [Compound 53]
Sensitivity Limit, High dye concentration (0.1 OD) [4]: 10 ng/mL | Sensitivity Limit, Low dye concentration (0.01 OD) [4]: >10 ng/mL

COC1=C/C(=C\c2nc3c(ccc[n+]3C)o2)c2ccccc2N1C [Compound 54]
Sensitivity Limit, High dye concentration (0.1 OD) [4]: 10 ng/mL | Sensitivity Limit, Low dye concentration (0.01 OD) [4]: 1.0 ng/mL
